One may read the pIC50 as the negative decadic logarithm of the IC50, by convention in mol/L. A low value points to a high IC50.

Drawing on patent publication US6589934B1, “Kv2.1 antagonists” (SmithKline Beecham Corporation, priority 1997, dated 2003), this text covers IC50 for 2 molecules.

This assay concerns the target T1, human kv2.1 (Homo sapiens, UniProt Q14721).
T1 construct: A HindIII-Notl fragment containing full length 2.1 was isolated from pBS/kv2.1 and subcloned to pcDNA3 for expression; expressed in transfected cells
T1 sequence (Q14721 1-858): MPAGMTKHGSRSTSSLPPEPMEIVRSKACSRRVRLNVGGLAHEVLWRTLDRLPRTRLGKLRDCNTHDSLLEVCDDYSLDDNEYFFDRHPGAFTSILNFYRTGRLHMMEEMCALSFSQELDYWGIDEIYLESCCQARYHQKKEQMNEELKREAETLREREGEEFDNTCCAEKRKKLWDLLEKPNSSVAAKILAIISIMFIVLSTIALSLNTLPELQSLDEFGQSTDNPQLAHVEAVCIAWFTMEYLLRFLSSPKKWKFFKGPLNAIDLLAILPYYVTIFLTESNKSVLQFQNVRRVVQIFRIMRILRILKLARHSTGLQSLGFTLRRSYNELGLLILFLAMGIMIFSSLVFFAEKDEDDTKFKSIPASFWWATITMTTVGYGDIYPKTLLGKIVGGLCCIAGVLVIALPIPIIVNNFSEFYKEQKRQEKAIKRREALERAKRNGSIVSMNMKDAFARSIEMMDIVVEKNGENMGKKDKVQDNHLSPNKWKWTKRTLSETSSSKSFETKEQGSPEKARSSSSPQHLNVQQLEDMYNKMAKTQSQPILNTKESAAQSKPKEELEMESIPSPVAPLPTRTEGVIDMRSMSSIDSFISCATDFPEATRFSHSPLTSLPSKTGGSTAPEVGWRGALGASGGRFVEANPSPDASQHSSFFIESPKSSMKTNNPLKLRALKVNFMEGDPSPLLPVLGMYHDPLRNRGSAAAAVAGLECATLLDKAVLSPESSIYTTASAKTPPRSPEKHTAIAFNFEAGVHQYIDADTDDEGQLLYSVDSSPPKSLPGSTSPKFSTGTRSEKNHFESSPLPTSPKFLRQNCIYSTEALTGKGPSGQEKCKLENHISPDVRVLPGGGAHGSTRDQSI
As to the kind of experiment: Whole cell patch clamp block of Kv2.1 in stably expressing CHO cells. The class given is cell-based. To be noted: CHO cells stably expressing Kv2.1, whole cell patch clamp. An excerpt: Full length cDNA of human kv2.1 was amplified from human brain polyA RNA by PCR. Oligo primers used for PCR amplification were designed according to the GeneBank accession# X68302 . The sequences of the two primers are: (5′ PCR primer) 5′-[…] (SEQ ID NO: 1), (3′ PCR primer) 5′-[…] (SEQ ID NO: 2). The cDNA was subcloned into pBS and sequenced. A HindIII-Notl fragment containing full length 2.1 was isolated from pBS/kv2.1 and subcloned to pcDNA3 for expression. The clone was transferred to pcDNA3 under the CMV promotor. […] Specifically, 1.5 μg of plasmid DNA (1.2 μg of Kv2.1 Plasmid and 0.3 μg of GFP plasmid Green Lantern™ (GIBCO)) was pre-incubated with 100 μl of DMEM/F12 and 12 μl of lipofectamine for a minimum of 15 minutes. Following incubation 1.4 ml of DMEM/F12 was added and the mixture overlayed on CHO cells (70-90% confluent) in a 6 well tray (1.5 ml/well). After 6-8 hours incubation an additional 1.5 ml of DMEM/F12 media containing 10% FBS was added to the transfection reaction. After a further overnight incubation the cells were removed from the 6 well plate with […] and plated at single cell density (10% Confluency) in 6 well plates contianing 25 mm glass coverslips. After overnight incubation, GFP containing cells were patched for current.
Stable CHO lines were prepared by using the same transfection protocol as above excluding the GFP DNA. […]
On the technique in general: In patch-clamp work, channel activity is measured electrically.

pIC50: −log10 of the molar value.

`CN1C[C@@H]2CN(CCCCc3ccc4c(c3)OCCO4)C[C@H](C1)[C@@H]2OC(=O)c1ccc(Cl)cc1` [Example 4] showed a pIC50 of around 6.52.
The molecule “hanatoxin (ECRYLFGGCKTTSDCCKHLGCKFRDKYCAWDFTFS) [reference compound]” had a pIC50 of around 7.22.
